Laboratory results: the NIST ThermoML archive (doi:10.1016/j.jct.2006.07.018)
± gives the expanded uncertainty stated by the source.

Assay: mn = molality of the nth substance listed, in mol/kg
Conditions: 350 kPa, Liquid, Vibrating tube method

CSCC[C@H](N)C(=O)O [L-methionine] + O
mass density (278.15 K, m1 = 0.0125): 1000.87 ± 0.06 kg/m3
mass density (278.15 K, m1 = 0.025): 1001.33 ± 0.06 kg/m3
mass density (278.15 K, m1 = 0.05): 1002.43 ± 0.07 kg/m3
mass density (278.15 K, m1 = 0.0997): 1005.13 ± 0.07 kg/m3
mass density (278.15 K, m1 = 0.1501): 1007.08 ± 0.06 kg/m3
mass density (278.15 K, m1 = 0.1929): 1008.66 ± 0.06 kg/m3
mass density (283.15 K, m1 = 0.0125): 1000.6 ± 0.06 kg/m3
mass density (283.15 K, m1 = 0.025): 1001.06 ± 0.06 kg/m3
mass density (283.15 K, m1 = 0.05): 1002.07 ± 0.07 kg/m3
mass density (283.15 K, m1 = 0.0997): 1004.77 ± 0.07 kg/m3
mass density (283.15 K, m1 = 0.1501): 1006.7 ± 0.06 kg/m3
mass density (283.15 K, m1 = 0.1929): 1008.25 ± 0.06 kg/m3
mass density (288.15 K, m1 = 0.0125): 999.97 ± 0.07 kg/m3
mass density (288.15 K, m1 = 0.025): 1000.44 ± 0.06 kg/m3
mass density (288.15 K, m1 = 0.05): 1001.43 ± 0.07 kg/m3
mass density (288.15 K, m1 = 0.0997): 1004.07 ± 0.06 kg/m3
mass density (288.15 K, m1 = 0.1501): 1005.97 ± 0.06 kg/m3
mass density (288.15 K, m1 = 0.1929): 1007.5 ± 0.06 kg/m3
mass density (298.15 K, m1 = 0.0125): 997.89 ± 0.08 kg/m3
mass density (298.15 K, m1 = 0.025): 998.35 ± 0.06 kg/m3
mass density (298.15 K, m1 = 0.05): 999.32 ± 0.07 kg/m3
mass density (298.15 K, m1 = 0.0997): 1001.89 ± 0.06 kg/m3
mass density (298.15 K, m1 = 0.1501): 1003.72 ± 0.06 kg/m3
mass density (298.15 K, m1 = 0.1929): 1005.21 ± 0.06 kg/m3
mass density (308.15 K, m1 = 0.0125): 994.85 ± 0.08 kg/m3
mass density (308.15 K, m1 = 0.025): 995.32 ± 0.06 kg/m3
mass density (308.15 K, m1 = 0.05): 996.3 ± 0.07 kg/m3
mass density (308.15 K, m1 = 0.0997): 998.76 ± 0.06 kg/m3
mass density (308.15 K, m1 = 0.1501): 1000.54 ± 0.06 kg/m3
mass density (308.15 K, m1 = 0.1929): 1002.01 ± 0.06 kg/m3
mass density (318.15 K, m1 = 0.0125): 991.01 ± 0.08 kg/m3
mass density (318.15 K, m1 = 0.025): 991.47 ± 0.06 kg/m3
mass density (318.15 K, m1 = 0.05): 992.35 ± 0.07 kg/m3
mass density (318.15 K, m1 = 0.0997): 994.85 ± 0.07 kg/m3
mass density (318.15 K, m1 = 0.1501): 996.62 ± 0.06 kg/m3
mass density (318.15 K, m1 = 0.1929): 998.08 ± 0.06 kg/m3
mass density (328.15 K, m1 = 0.0125): 986.48 ± 0.08 kg/m3
mass density (328.15 K, m1 = 0.025): 986.94 ± 0.07 kg/m3
mass density (328.15 K, m1 = 0.05): 987.79 ± 0.07 kg/m3
mass density (328.15 K, m1 = 0.0997): 990.26 ± 0.07 kg/m3
mass density (328.15 K, m1 = 0.1501): 992 ± 0.06 kg/m3
mass density (328.15 K, m1 = 0.1929): 993.45 ± 0.06 kg/m3
mass density (338.15 K, m1 = 0.0125): 981.32 ± 0.08 kg/m3
mass density (338.15 K, m1 = 0.025): 981.79 ± 0.07 kg/m3
mass density (338.15 K, m1 = 0.05): 982.66 ± 0.07 kg/m3
mass density (338.15 K, m1 = 0.0997): 985.05 ± 0.07 kg/m3
mass density (338.15 K, m1 = 0.1501): 986.79 ± 0.07 kg/m3
mass density (338.15 K, m1 = 0.1929): 988.23 ± 0.06 kg/m3
mass density (348.15 K, m1 = 0.0125): 975.6 ± 0.08 kg/m3
mass density (348.15 K, m1 = 0.025): 976.09 ± 0.07 kg/m3
mass density (348.15 K, m1 = 0.05): 976.97 ± 0.08 kg/m3
mass density (348.15 K, m1 = 0.0997): 979.29 ± 0.07 kg/m3
mass density (348.15 K, m1 = 0.1501): 981.03 ± 0.07 kg/m3
mass density (348.15 K, m1 = 0.1929): 982.49 ± 0.07 kg/m3
mass density (358.15 K, m1 = 0.0125): 969.38 ± 0.08 kg/m3
mass density (358.15 K, m1 = 0.025): 969.84 ± 0.08 kg/m3
mass density (358.15 K, m1 = 0.05): 970.77 ± 0.08 kg/m3
mass density (358.15 K, m1 = 0.0997): 973.02 ± 0.08 kg/m3
mass density (358.15 K, m1 = 0.1501): 974.79 ± 0.07 kg/m3
mass density (358.15 K, m1 = 0.1929): 976.26 ± 0.07 kg/m3
mass density (368.15 K, m1 = 0.0125): 962.63 ± 0.08 kg/m3
mass density (368.15 K, m1 = 0.025): 963.11 ± 0.08 kg/m3
mass density (368.15 K, m1 = 0.05): 964.09 ± 0.08 kg/m3
mass density (368.15 K, m1 = 0.0997): 966.29 ± 0.08 kg/m3
mass density (368.15 K, m1 = 0.1501): 968.05 ± 0.08 kg/m3
mass density (368.15 K, m1 = 0.1929): 969.51 ± 0.08 kg/m3
